Source: the CheMixHub ionic liquid set

Assay: xn = mol fraction of the nth substance listed

O=S(=O)([N-]S(=O)(=O)C(F)(F)F)C(F)(F)F.[Cs+] + O=S(=O)([N-]S(=O)(=O)C(F)(F)F)C(F)(F)F.[Li+]
100 kPa, frequency 1 MHz, x2 = 0.07
Conditions	electrical conductivity [S/m]
403.1 K	0.673
413.1 K	0.898
423.5 K	1.16
432.7 K	1.44
442.1 K	1.77
452.2 K	2.12
462.6 K	2.52
473.6 K	2.94
482.8 K	3.37
492 K	3.86
502.1 K	4.33
512.5 K	4.85
523.1 K	5.37
531.3 K	5.9
542.9 K	6.41
551.8 K	7
560.9 K	7.52
571.1 K	8.14

100 kPa, x2 = 0.07
Conditions	viscosity [mPa·s]
403.2 K	97
413.2 K	69.8
423.7 K	51.5
432.9 K	39.2
442.5 K	27.9
452.5 K	23
463 K	18.9
473.9 K	15.8
483.1 K	13.1
492.6 K	11.1
502.5 K	9.71
512.8 K	8.54
523.6 K	7.41
531.9 K	6.64
543.5 K	6.03
552.5 K	5.39
561.8 K	5.01

O=S(=O)([N-]S(=O)(=O)C(F)(F)F)C(F)(F)F.[K+] + O=S(=O)([N-]S(=O)(=O)C(F)(F)F)C(F)(F)F.[Li+]
100 kPa, frequency 1 MHz, x2 = 0.43
Conditions	electrical conductivity [S/m]
442.3 K	0.359
452.3 K	0.479
462.7 K	0.624
473.6 K	0.794
483 K	0.99
492.3 K	1.19
502.3 K	1.42
512.6 K	1.66
523.4 K	1.93
531.6 K	2.25
543 K	2.48
552.2 K	2.77
561.6 K	3.1
571.3 K	3.53

100 kPa, x2 = 0.43
Conditions	viscosity [mPa·s]
442.5 K	179
452.5 K	127
463 K	90
473.9 K	63.7
483.1 K	50.6
492.6 K	39.1
502.5 K	31.6
512.8 K	26.4
523.6 K	21.8
531.9 K	18.4
543.5 K	14.6
552.5 K	13.6
561.8 K	12.5

FC(F)C(F)(F)COC(F)(F)C(F)F + O=S(=O)([N-]S(=O)(=O)C(F)(F)F)C(F)(F)F.[Li+] + O=S1(=O)CCCC1
303.15 K, 101 kPa
Conditions	electrical conductivity [S/m]
x2 = 0.1429, x3 = 0.5714	0.073
x2 = 0.1818, x3 = 0.5455	0.09
x2 = 0.25, x3 = 0.5	0.09
x2 = 0.4, x3 = 0.4	0.079

O=S(=O)([N-]S(=O)(=O)C(F)(F)F)C(F)(F)F.[Li+] + O=S(=O)([O-])C(F)(F)F.[Li+] + O
viscosity [mPa·s], 100 kPa
Conditions	x2 = 0, x1 = 0.112	x2 = 0, x1 = 0.1896	x2 = 0, x1 = 0.2333	x2 = 0, x1 = 0.2547	x2 = 0, x1 = 0.2741
298.15 K	5.2	15.8	30.7	42.3	54.1
308.15 K	4.3	11.5	21.5	29	36.1
318.15 K	3.4	8.6	15.8	20.9	25.5
328.15 K	2.8	6.6	12	15.6	18.7

O=S(=O)([N-]S(=O)(=O)C(F)(F)F)C(F)(F)F.[Li+] + OCCO
Conditions	electrical conductivity [S/m]
333 K, 100 kPa, frequency 1 MHz, x1 = 0.5	0.8

Conditions	viscosity [mPa·s]
333 K, 100 kPa, x1 = 0.5	21.68

CC[N+]1(C)CCCC1.[Br-] + OC[C@H]1O[C@@H]2O[C@H]3[C@H](O)[C@@H](O)[C@@H](O[C@H]4[C@H](O)[C@@H](O)[C@@H](O[C@H]5[C@H](O)[C@@H](O)[C@@H](O[C@H]6[C@H](O)[C@@H](O)[C@@H](O[C@H]7[C@H](O)[C@@H](O)[C@@H](O[C@H]8[C@H](O)[C@@H](O)[C@@H](O[C@H]1[C@H](O)[C@H]2O)O[C@@H]8CO)O[C@@H]7CO)O[C@@H]6CO)O[C@@H]5CO)O[C@@H]4CO)O[C@@H]3CO + O
298.15 K, 100 kPa
Conditions	viscosity [mPa·s]
x2 = 1.587e-05, x1 = 0.001261	1.38
x2 = 1.587e-05, x1 = 0.001531	1.4
x2 = 1.588e-05, x1 = 0.0009911	1.37
x2 = 4.77e-05, x1 = 0.001534	1.45
x2 = 4.771e-05, x1 = 0.001264	1.42
x2 = 4.772e-05, x1 = 0.0009931	1.39

CCCCCCCCCC[n+]1ccn(C)c1.[Cl-] + OC[C@H]1O[C@@](CO)(O[C@H]2O[C@H](CO)[C@@H](O)[C@H](O)[C@H]2O)[C@@H](O)[C@@H]1O + O
298.15 K, 101.3 kPa
Conditions	electrical conductivity [S/m]
x2 = 0, x1 = 6.46e-06	0.00385
x2 = 0, x1 = 9.55e-06	0.00548
x2 = 0, x1 = 1.262e-05	0.00708
x2 = 0, x1 = 1.582e-05	0.00872
x2 = 0, x1 = 1.894e-05	0.0103
x2 = 0, x1 = 2.2e-05	0.0118
x2 = 0, x1 = 2.507e-05	0.01334
x2 = 0, x1 = 2.8e-05	0.0148
x2 = 0, x1 = 3.092e-05	0.0162
x2 = 0, x1 = 3.384e-05	0.0176
x2 = 0.003591, x1 = 7.14e-06	0.00361
x2 = 0.003591, x1 = 1.162e-05	0.00554
x2 = 0.003591, x1 = 1.987e-05	0.00901
x2 = 0.003591, x1 = 2.367e-05	0.0106
x2 = 0.003591, x1 = 2.764e-05	0.01214
x2 = 0.003591, x1 = 3.131e-05	0.0136
x2 = 0.003591, x1 = 3.559e-05	0.01531
x2 = 0.003591, x1 = 3.942e-05	0.0168
x2 = 0.003591, x1 = 4.357e-05	0.0184
x2 = 0.007156, x1 = 4.94e-06	0.00234
x2 = 0.007156, x1 = 9.37e-06	0.0041
x2 = 0.007156, x1 = 1.394e-05	0.00589
x2 = 0.007156, x1 = 1.816e-05	0.00752
x2 = 0.007156, x1 = 2.215e-05	0.00905
x2 = 0.007156, x1 = 2.62e-05	0.0106
x2 = 0.007156, x1 = 3.004e-05	0.01205
x2 = 0.007156, x1 = 3.378e-05	0.0135
x2 = 0.007156, x1 = 3.734e-05	0.0148
x2 = 0.007156, x1 = 4.078e-05	0.01606
x2 = 0.0107, x1 = 8.82e-06	0.00336
x2 = 0.0107, x1 = 1.279e-05	0.00469
x2 = 0.0107, x1 = 1.666e-05	0.00596
x2 = 0.0107, x1 = 2.02e-05	0.00712
x2 = 0.0107, x1 = 2.387e-05	0.00828
x2 = 0.0107, x1 = 2.723e-05	0.00939
x2 = 0.0107, x1 = 3.056e-05	0.0105
x2 = 0.0107, x1 = 3.344e-05	0.01139
x2 = 0.0107, x1 = 3.674e-05	0.0124
x2 = 0.0107, x1 = 3.975e-05	0.0134
x2 = 0.01421, x1 = 8.46e-06	0.00279
x2 = 0.01421, x1 = 1.229e-05	0.00388
x2 = 0.01421, x1 = 1.596e-05	0.00491
x2 = 0.01421, x1 = 1.986e-05	0.00599
x2 = 0.01421, x1 = 2.304e-05	0.00688
x2 = 0.01421, x1 = 2.641e-05	0.0078
x2 = 0.01421, x1 = 2.985e-05	0.00874
x2 = 0.01421, x1 = 3.276e-05	0.00953
x2 = 0.01421, x1 = 3.602e-05	0.01042
x2 = 0.01421, x1 = 3.892e-05	0.01121
x2 = 0.0177, x1 = 1.052e-05	0.00291
x2 = 0.0177, x1 = 1.539e-05	0.00407
x2 = 0.0177, x1 = 2e-05	0.00515
x2 = 0.0177, x1 = 2.419e-05	0.00614
x2 = 0.0177, x1 = 2.851e-05	0.00714
x2 = 0.0177, x1 = 3.269e-05	0.0081
x2 = 0.0177, x1 = 3.635e-05	0.00895
x2 = 0.0177, x1 = 4.032e-05	0.00985
x2 = 0.0177, x1 = 4.414e-05	0.0107

CCn1cc[nH+]c1.O=S(=O)([N-]S(=O)(=O)C(F)(F)F)C(F)(F)F + c1c[nH]cn1
Conditions	electrical conductivity [S/m]
303.15 K, 100 kPa, x1 = 0.948	0.427

N#C[C-](C#N)C#N.OCCC[n+]1ccccc1 + c1ccsc1
viscosity [mPa·s], 101 kPa
Conditions	x1 = 0.4088	x1 = 0.505	x1 = 0.5955	x1 = 0.7045	x1 = 0.8231	x1 = 0.9377	x1 = 1
293.15 K	17.5	31.5	48.6	69.3	94.1	115	126
298.15 K	14.4	25.1	36.6	52	68.9	85.4	92.5
303.15 K	12	20.4	29.3	40	52.7	64.4	69.5
308.15 K	10.2	16.9	24.1	32.4	42.1	49.9	53.8
313.15 K	8.69	14.3	19.8	26.4	33.5	39.5	42.5
318.15 K	7.53	12.2	16.9	22.1	27.4	32.2	34.6
323.15 K	6.58	10.5	14.2	18.3	22.4	26.2	28.1
328.15 K	5.8	9.03	12	15.4	18.8	21.8	23.4
333.15 K	5.15	7.96	10.5	13.3	16.1	18.5	19.8
338.15 K	4.62	7.12	9.24	11.5	13.8	15.9	16.9
343.15 K	4.16	6.33	8.11	10	11.9	13.6	14.5
348.15 K	3.96	5.89	7.4	9.06	10.7	12.3	13.1
